In US20260041622A1, “Reduction of Signs of Skin Aging” (CarboCode S.A., priority 2022, published 2026):

Legend:
[1] = test system: Reconstructed Human Epidermis (RHE); test: Reconstructed Human Epidermis (RHE) treated topically with ceramide in base emulsion, LC-MS/MS proteomics; format: cell-based; conditions: application on keratinocytes
Method: Material and methods: Reconstructed Human Epidermis (RHE) cell culture is used, as this system mimics the in vivo 3D structure of epidermal tissue as well as the conditions and processes that occur in normal epidermis. RHE are cultured using the medium provided by the manufacturer until analysis. RHE are maintained in survival for 24 hours, before RHE are topically treated with the respective ceramide in a base emulsion for 24 h. 3 RHE are treated with base emulsion alone and 3 more remained untreated as a control batch (Ctrl). RHE are incubated under classical cell culture conditions (37° C., 5% CO2).
Sample preparation and LC-MS/MS analysis: Protein is extracted using the Pierce Total Protein Extraction Kit (Thermo Fisher) according to manufacturer's recommendations. The protein is mixed with Laemmli buffer and heated to 37° C. for 30 min. Protein concentration is determined by the BCA method and standardized for all samples. The samples are separated by SDS-PAGE and digested with trypsin overnight. The peptides generated are acidified and separated. The mass spectra are queried using Proteome Discoverer (version 2.5). The resulting MS/MS data are queried against the Homo sapiens proteome UP000005640 (20371 reviewed entries). Results are filtered based on unique peptides >2, and global peptide scores. Analyses are performed using Proteome Discoverer 2.5 to check for overall sample quality.
Bioinformatics and statistical analysis: Proteomic analysis returned a mean total of 34961 high-quality peptides corresponding to a mean 2422 identifiable and quantifiable RHE proteins among conditions. A summary of proteins differentially expressed within conditions is provided in Annex 3. Proteins with a p-value 0.05 in at least one of the concentrations tested for a lipid are considered significant and used for pairwise comparisons. Relevant proteins are classified by their biological processes and associated pathways using the publicly available gene ontology (GO) database provided by the Gene Ontology Consortium and Reactome. Interactome analysis was performed using Cytoscape combined with STRING.

IL-1α = IL-1α ELISA quantification in BEM culture medium of skin explants; format: cell-based, human; conditions: 0.05% GlcCNS18 in basic emulsion, topical
Method: Human skin explants of an average diameter of 11 mm (+1 mm) were prepared on an abdoplasty coming from a person with a II phototype according to Fitzpatrick skin colour classification. The explants were kept in survival in BEM culture medium (BIO-EC's Explants Medium) at 37° C. in a humid, 5%—CO2 atmosphere.
The tested products E and P were applied topically at a rate of 2 μL per 1 cm^2 explant (2 mg/cm^2), and spread using a small spatula on day 0 (D0), D1, D2 and D5. […] The culture medium was half renewed (1 ml per well) on D1, D2 and completely renewed (2 mL per well) on D5.
On D0, the 3 explants from the batch TO were collected and cut into two parts. One part was fixed in buffered formalin solution, and the other part was frozen at −80° C. for histological analysis. On D6, 4 explants from the concerned batches were collected and treated in the same way than in D0. The culture medium BEM of all batches was collected on D6 (2 mL per explant) and stored at −20° C. for dosages.
IL-1α dosage was performed with human IL-1α ELISA kit (Cayman, ref 583301). According to provider's guidelines, the culture medium and the IL-1α standard were incubated with acetylcholinesterase (AChE) Fab′ conjugate binding IL-1α in wells which contain coated IL-1α antibody, overnight at 4° C. […] Absorbance at 412 nm was measured using the M200Pro Tecan microplate reader and Magellan7 software. […]

Laminin 5 = test: Laminin-5 immunostaining along the dermal-epidermal junction of living human skin explants; format: cell-based; conditions: 0.1% CNS18 in basic emulsion, topical, 4 days of treatment
Method: (§1) Human skin explants of an average diameter of 12 mm (±1 mm) were prepared on an abdoplasty coming from a person with a phototype II according to Fitzpatrick skin colour classification. The explants were kept in survival in BEM culture medium (BIO-EC's Explants Medium) at 37° C. in a humid, 5%—CO2 atmosphere.
(§2) The tested products E and P were applied topically at a rate of […] per 1 cm^2 explant (≈2 mg/cm^2), and spread using a small spatula on day 0 (D0), D2, D4 and D6. […] The culture medium was half renewed (l ml per well) on D2, D4 and D6.
(§3) On D0, the 3 explants from the batch TO were collected and cut into two parts. Half was fixed in buffered formalin solution, […] was frozen at −80° C. On D4 and D8, 3 explants from the concerned batches were collected and treated in the same way as in D0.
After fixation for 24 hours in buffered formalin, the samples were dehydrated and impregnated in paraffin using a Leica PEARL dehydration automat. The samples were embedded using a Leica EG 1160 embedding station. 5-μm-thick sections were made using a Leica RM 2125 Minot-type microtome, and the sections were mounted on Superfrost® histological glass slides. The frozen samples were cut into 7-μm-thick sections using a Leica CM 3050 cryostat. Sections were then mounted on Superfrost® plus silanized glass slides. […]
The immunostaining was assessed by microscopical observation.

Collagen IV = Collagen IV immunostaining along the dermal-epidermal junction of living human skin explants; format: cell-based; conditions: 0.1% CNS18 in basic emulsion, topical, 8 days of treatment
Method: as §1, §2, §3
After fixation for 24 hours in buffered formalin, the samples were dehydrated and impregnated in paraffin using a Leica PEARL dehydration automat. The samples were embedded using a Leica EG 1160 embedding station. […]
Collagen IV immunostaining was performed on frozen skin sections with a monoclonal anti-collagen IV antibody (Dako, ref M0785, clone CIV 22) diluted at 1:25 in PBS-BSA 0.3%-Tween 20 at 0.05% and incubated for 1 h at room temperature. […] The immunostaining was assessed by microscopical observation.

[2] = 0.01%, 0.03%, 0.15% ceramide in vehicle vs vehicle, 24 h

SMILES	regulation of ATP synthase subunit delta (mitochondrial) [1]	regulation of ATP synthase subunit g (mitochondrial) [1]	regulation of ATP-dependent zinc metalloprotease YME1L1 [1]	regulation of LC3A (microtubule-associated proteins 1A/1B light chain 3A) [1]	regulation of NAD-dependent malic enzyme (mitochondrial) [1]	regulation of cytochrome c oxidase subunit 6C [1]	regulation of phosphomevalonate kinase [1]	regulation of protein S100-A2 [1]	regulation of protein S100-A9 [1]	regulation of ECM1 (Extracellular Matrix Protein 1) [1, 2]	regulation of Syndecan-1 [1, 2]	regulation of NAD-dependent protein deacetylase sirtuin-2 (sirtuin-2) [1]	also measured
CCCCCCCCCCCCCC=CC(O)C(COC1OC(CO)C(O)C(O)C1O)NC(=O)CCCCCCCCCCCCCCCCC (centres unmarked) [GlcCer]	up-regulation	up-regulation	up-regulation	up-regulation	up-regulation	up-regulation	up-regulation	down-regulation	down-regulation				regulation of NADH dehydrogenase [ubiquinone]1 alpha subcomplex subunit 8 [1]: up-regulation; regulation of NADH dehydrogenase [ubiquinone] iron-sulfur protein 2 (mitochondrial) [1]: up-regulation; regulation of interleukin-1-alpha (IL-1α) [1]: down-regulation; regulation of nuclear factor NF-kappa-B p105 subunit [1]: down-regulation; IL-1α release (IL-1α; day 6): increased; IL-1α release (IL-1α; day 6, listed as GlcCNS): significant increase
CCCCCCCCCCCCCCCCCC(=O)NC(CO)C(O)C(O)CCCCCCCCCCCCCC (centres unmarked) [Cer NP]										up-regulation	up-regulation		regulation of Keratin-17 [1]: up-regulation
CCCCCCCCCCCCCC=CC(O)C(COC1OC(CO)C(OC2OC(CO)C(O)C(O)C2O)C(O)C1O)NC(=O)CCCCCCCCCCCCCCCCC (centres unmarked) [LacCer]	upregulation	upregulation	upregulation		upregulation	upregulation	upregulation			up-regulation	up-regulation	up-regulation	regulation of Glutathione S-transferase Mu 2 [1]: up-regulation; regulation of LC3B (microtubule-associated proteins 1A/1B light chain 3B) [1]: up-regulation; regulation of cystathione-gamma-lyase [1]: up-regulation; regulation of cytochrome b-cl complex subunit 9 [1]: upregulation; regulation of cytochrome c oxidase subunit 2 [1]: upregulation; regulation of cytochrome c oxidase subunit NDUFA4 [1]: upregulation
CCCCCCCCCCCCCC=CC(O)C(CO)NC(=O)CCCCCCCCCCCCCCCCC (centres unmarked) [Cer NS]				up-regulation				down-regulation	down-regulation	up-regulation	up-regulation	up-regulation	increase in expression of laminin-5 (Laminin 5): 26%; increase in expression of collagen IV (Collagen IV): 41%; regulation of Kallikrein-5 [1]: up-regulation; regulation of cornifin-B [1]: up-regulation; regulation of Laminin-5 [1, 2]: up-regulation; regulation of Plakophilin-2 [1, 2]: up-regulation
CCCCCCCCCCCCCCCCCC(=O)NC(CO)C(O)CCCCCCCCCCCCCCC (centres unmarked) [Cer NG]	upregulation	upregulation				upregulation	upregulation			up-regulation		up-regulation	regulation of small proline-rich protein 2D [1]: up-regulation; regulation of Integrin alpha-3 [1, 2]: up-regulation
